For two molecules, mass density and refractive index results are on record in the NIST ThermoML archive (doi:10.1021/je501085y).

The conditions of data set [1]: 293.15 K; 101.33 kPa; Liquid; Vibrating tube method.
A short description of data set [2]: refractive index (Na D-line) (dimensionless). Conditions: 293.15 K; 101.33 kPa; Liquid; Standard Abbe refractometry.

Numbers after ± are expanded uncertainties.

As usually defined, the mass density is the mass of a sample divided by its volume. One may read the refractive index as the speed of light in vacuum divided by its phase velocity in the sample. `COC1CCCC1` [methoxycyclopentane]: the mass density in data set [1] is listed as 860.43 ± 0.12 kg/m3. Further, the refractive index in data set [2] was determined as 1.4187 ± 0.0007.
Regarding `C=CC(=O)O` [propenoic acid], the mass density in data set [1] was found to be 1051.22 ± 0.1 kg/m3. The refractive index in data set [2] came to 1.4223 ± 0.0007.
